Consider 18 compounds from ChEMBL document CHEMBL2434940, “Synthesis and antitumor activities of novel α-aminophosphonates dehydroabietic acid derivatives” (Bioorg Med Chem Lett, 2013).

Calls of active or inactive are those of the source. The calls are words filed in the database; no cut-off is given here.

The test system of one data set is SK-OV-3. Briefly: Cytotoxicity against human SKOV3 cells after 48 hrs by MTT assay. The data set is classed as functional, cell-based. The note with it: SK-OV-3, 48 h.
In the next data set the test system is A549. The experiment in a line: Cytotoxicity against human A549 cells after 48 hrs by MTT assay. The data set is classed as functional, cell-based. The following applies: A549, 48 h.
A further data set has as its system HepG2. Briefly: Cytotoxicity against human HepG2 cells after 48 hrs by MTT assay. The following applies: HepG2, 48 h. The class given is functional, cell-based.
Data set [1] concerns NCI-H460. The experiment in a line: Cytotoxicity against human NCI-H460 cells after 48 hrs by MTT assay. The data set is classed as functional, cell-based. The following applies: NCI-H460, 48 h.
Data set [2] deals with NCI-H460. The experiment in a line: Induction of apoptosis in human NCI-H460 cells assessed as loss of mitochondria membrane potential at 45 uM after 24 hrs by JC-1 staining-based fluorescence microscopic analysis. The class given is functional, cell-based.
In data set [3] the test system is NCI-H460. Briefly: Induction of apoptosis in human NCI-H460 cells assessed as early apoptotic cells at 45 uM after 24 hrs by Annexin V-FITC and propidium iodide staining-based FACS flow cytometric analysis (reference value: 1.5%). The class given is functional.
Data set [4] deals with NCI-H460. Briefly: Cell cycle arrest in human NCI-H460 cells assessed as accumulation at S phase at IC50 by propidium iodide staining-based FACS flow cytometric analysis relative to control. The class given is functional.
The test system of data set [5] is NCI-H460. Briefly: Cell cycle arrest in human NCI-H460 cells assessed as accumulation at G1 phase at IC50 by propidium iodide staining-based FACS flow cytometric analysis relative to control. The data set is classed as functional.
The subject of data set [6] is NCI-H460. Briefly: Induction of apoptosis in human NCI-H460 cells assessed as necrotic/late apoptotic cells at 45 uM after 24 hrs by Annexin V-FITC and propidium iodide staining-based FACS flow cytometric analysis (reference value: 0.8%). The class given is functional.
The subject of data set [7] is NCI-H460. The experiment in a line: Cell cycle arrest in human NCI-H460 cells assessed as accumulation at G2 phase at IC50 by propidium iodide staining-based FACS flow cytometric analysis relative to control. The data set is classed as functional.
Data set [8] relates to NCI-H460. The experiment in a line: Induction of apoptosis in human NCI-H460 cells assessed as cell budding at 5 uM after 12 to 24 hrs by AO/EB staining-based fluorescence microscopic analysis. The class given is functional.
For data set [9], the system named is NCI-H460. Briefly: Induction of apoptosis in human NCI-H460 cells assessed as loss of mitochondria membrane potential at 5 uM after 12 to 24 hrs by JC-1 staining-based fluorescence microscopic analysis. The class given is functional, cell-based.
The test system of data set [10] is NCI-H460. The experiment in a line: Induction of apoptosis in human NCI-H460 cells assessed as pycnosis at 5 uM after 12 to 24 hrs by AO/EB staining-based fluorescence microscopic analysis. The class given is functional, cell-based.
Data set [11] concerns NCI-H460. The experiment in a line: Induction of apoptosis in human NCI-H460 cells assessed as necrotic/late apoptotic cells at 5 uM after 12 hrs by Annexin V-FITC and propidium iodide staining-based FACS flow cytometric analysis (reference value: 1.9%). The data set is classed as functional.
In data set [12] the test system is NCI-H460. Briefly: Induction of apoptosis in human NCI-H460 cells assessed as apoptotic ratio at 5 uM after 12 hrs by Annexin V-FITC and propidium iodide staining-based FACS flow cytometric analysis relative to control. The data set is classed as functional.
The subject of data set [13] is NCI-H460. The experiment in a line: Induction of apoptosis in human NCI-H460 cells after 12 hrs by Annexin V-FITC and propidium iodide staining-based FACS flow cytometric analysis. The data set is classed as functional, cell-based.
The subject of data set [14] is NCI-H460. Briefly: Induction of apoptosis in human NCI-H460 cells at 5 uM after 12 to 24 hrs by Hoechst 33258 staining-based fluorescence microscopic analysis. The class given is functional, cell-based.
Data set [15] relates to NCI-H460. Briefly: Induction of apoptosis in human NCI-H460 cells assessed as early apoptotic cells at 5 uM after 24 hrs by Annexin V-FITC and propidium iodide staining-based FACS flow cytometric analysis (reference value: 3.8%). The class given is functional.
The subject of data set [16] is NCI-H460. The experiment in a line: Induction of apoptosis in human NCI-H460 cells assessed as early apoptotic cells at 5 uM after 12 hrs by Annexin V-FITC and propidium iodide staining-based FACS flow cytometric analysis (reference value: 3.8%). The class given is functional.
Data set [17] deals with NCI-H460. Briefly: Induction of apoptosis in human NCI-H460 cells assessed as membrane blebbing at 5 uM after 12 to 24 hrs by AO/EB staining-based fluorescence microscopic analysis. The data set is classed as functional, cell-based.
Data set [18] relates to NCI-H460. Briefly: Cytotoxicity against human NCI-H460 cells at 5 uM after 12 to 24 hrs by AO/EB staining-based fluorescence microscopic analysis. The following applies: nci-h460, 5 µM. The class given is cell-based.
The subject of data set [19] is NCI-H460. Briefly: Induction of apoptosis in human NCI-H460 cells assessed as necrotic/late apoptotic cells at 5 uM after 24 hrs by Annexin V-FITC and propidium iodide staining-based FACS flow cytometric analysis (reference value: 1.9%). The class given is functional.
Data set [20] concerns NCI-H460. The experiment in a line: Induction of apoptosis in human NCI-H460 cells assessed as apoptotic ratio at 3 uM after 12 hrs by Annexin V-FITC and propidium iodide staining-based FACS flow cytometric analysis relative to control. The data set is classed as functional.

For the compound `CCOP(=O)(OCC)C(NC(=S)NC(=O)[C@]1(C)CCC[C@]2(C)c3ccc(C(C)C)cc3CC[C@@H]12)c1ccc(F)cc1` (stereo partly specified), the IC50 came to 13.5 µM in the data set on SK-OV-3, 23.4 µM in the data set with A549, 10.3 µM in the data set on HepG2 and 4.39 µM with NCI-H460 [1].

Regarding `CCOP(=O)(OCC)C(NC(=S)NC(=O)[C@]1(C)CCC[C@]2(C)c3ccc(C(C)C)cc3CC[C@@H]12)c1ccccc1Cl` (stereo partly specified), the IC50 with SK-OV-3 stood at 15.3 µM; with A549 it was 19.6 µM; in the data set with HepG2, 24.9 µM; in the data set with NCI-H460 [1] it was 30.7 µM.

In the case of `CCOP(=O)(OCC)C(NC(=S)NC(=O)[C@]1(C)CCC[C@]2(C)c3ccc(C(C)C)cc3CC[C@@H]12)c1ccc(Br)cc1` (stereo partly specified), the IC50 in the data set on SK-OV-3 was 14 µM; with A549, 20.2 µM; in the data set on HepG2, 24 µM; with NCI-H460 [1], 18.7 µM.

`CCOP(=O)(OCC)C(NC(=S)NC(=O)[C@]1(C)CCC[C@]2(C)c3ccc(C(C)C)cc3CC[C@@H]12)c1ccccc1Br` (stereo partly specified): the 50% inhibitory concentration (IC50) in the data set with SK-OV-3 was 17.4 µM; in the data set with A549, 22.2 µM; in the data set on HepG2, 27.1 µM; in the data set on NCI-H460 [1], 18.6 µM.

As for `CCOP(=O)(OCC)C(NC(=S)NC(=O)[C@]1(C)CCC[C@]2(C)c3ccc(C(C)C)cc3CC[C@@H]12)c1ccc(Cl)cc1` (stereo partly specified), the IC50 in the data set on SK-OV-3 worked out at 14.5 µM; in the data set on A549, 12.7 µM; with HepG2, 26.5 µM; in the data set with NCI-H460 [1], 19.7 µM.

Take `O=c1[nH]cc(F)c(=O)[nH]1` [FLUOROURACIL]: the outcome in the data set on NCI-H460 [2] was Active. Moreover, the Activity is 16.8% in the data set on NCI-H460 [3]; 28.07% with NCI-H460 [4]; 71.93% in the data set with NCI-H460 [5]; 6.5% in the data set with NCI-H460 [6]; 0% in the data set with NCI-H460 [7]. In addition, in the data set on HepG2, 30 µM corresponded to half-maximal inhibition (IC50).

As for `CCOP(=O)(OCC)C(NC(=S)NC(=O)[C@]1(C)CCC[C@]2(C)c3ccc(C(C)C)cc3CC[C@@H]12)c1cccc(Cl)c1` (stereo partly specified), the half-inhibitory concentration (IC50) in the data set with SK-OV-3 is 19.7 µM; in the data set with A549, 26.4 µM; in the data set with HepG2 it was more than 50 µM; with NCI-H460 [1], 36.4 µM.

As to `CCOP(=O)(OCC)C(NC(=S)NC(=O)[C@]1(C)CCC[C@]2(C)c3ccc(C(C)C)cc3CC[C@@H]12)c1cccc(C)c1` (stereo partly specified), the IC50 with SK-OV-3 came to 16.6 µM; in the data set on A549, 18.8 µM; in the data set on HepG2 it was 37.3 µM; in the data set on NCI-H460 [1], 17.8 µM.

For the compound `CCOP(=O)(OCC)C(NC(=S)NC(=O)[C@]1(C)CCC[C@]2(C)c3ccc(C(C)C)cc3CC[C@@H]12)c1ccccc1` (stereo partly specified), the IC50 in the data set on SK-OV-3 amounted to 12.1 µM; with A549 it was 24.2 µM; in the data set with HepG2 it was 15.2 µM; in the data set on NCI-H460 [1], 28.1 µM.

For the compound `CCOP(=O)(OCC)C(NC(=S)NC(=O)[C@]1(C)CCC[C@]2(C)c3ccc(C(C)C)cc3CC[C@@H]12)c1ccccc1OC` (stereo partly specified), the IC50 with SK-OV-3 was found to be 18.9 µM; in the data set on A549, 18.4 µM; in the data set with HepG2 it was 7.7 µM; with NCI-H460 [1], 3.33 µM. Besides, the outcome with NCI-H460 [8], with NCI-H460 [9], with NCI-H460 [10], in the data set with NCI-H460 [14] and in the data set with NCI-H460 [17] was Active. Further, the Activity in the data set on NCI-H460 [11] was 5.2%; with NCI-H460 [12] it was 51.5%; in the data set with NCI-H460 [13], “Dose-dependent effect”; with NCI-H460 [4] it was 23.49%; in the data set on NCI-H460 [5] it was 62.8%; with NCI-H460 [15], 35.3%. Besides, the Activity with NCI-H460 [16] is listed as 14.3%; in the data set with NCI-H460 [18], “Non-toxic”; in the data set with NCI-H460 [19] it was 16.2%; in the data set with NCI-H460 [7] it was 13.7%; in the data set with NCI-H460 [20], 19.5%.

Consider `CCOP(=O)(OCC)C(NC(=S)NC(=O)[C@]1(C)CCC[C@]2(C)c3ccc(C(C)C)cc3CC[C@@H]12)c1ccc(C)cc1` (stereo partly specified), for which the IC50 was 14.1 µM in the data set on SK-OV-3, 21.9 µM in the data set with A549, 30 µM in the data set on HepG2 and 26.4 µM in the data set with NCI-H460 [1].

Turning to `CCOP(=O)(OCC)C(NC(=S)NC(=O)[C@]1(C)CCC[C@]2(C)c3ccc(C(C)C)cc3CC[C@@H]12)c1ccc2ccccc2c1` (stereo partly specified), the IC50 is more than 50 µM in the data set with SK-OV-3, 45.7 µM with A549, more than 50 µM in the data set on HepG2 and 22.7 µM in the data set with NCI-H460 [1].

As to `CCOP(=O)(OCC)C(NC(=S)NC(=O)[C@]1(C)CCC[C@]2(C)c3ccc(C(C)C)cc3CC[C@@H]12)c1cccc(OC)c1` (stereo partly specified), the IC50 with SK-OV-3 is 9.96 µM; in the data set on A549, 29.6 µM; in the data set with HepG2, 18 µM; in the data set with NCI-H460 [1] it was 15.8 µM.

In the case of `CCOP(=O)(OCC)C(NC(=S)NC(=O)[C@]1(C)CCC[C@]2(C)c3ccc(C(C)C)cc3CC[C@@H]12)c1cccc(F)c1` (stereo partly specified), the IC50 in the data set with SK-OV-3 turned out to be 13.7 µM; in the data set with A549, 24.4 µM; in the data set on HepG2, 31.6 µM; in the data set on NCI-H460 [1] it was 27.5 µM.

For `CCOP(=O)(OCC)C(NC(=S)NC(=O)[C@]1(C)CCC[C@]2(C)c3ccc(C(C)C)cc3CC[C@@H]12)c1cccc(Br)c1` (stereo partly specified), the IC50 with SK-OV-3 was determined as 20.7 µM; in the data set with A549, 19.5 µM; in the data set on HepG2, 15.2 µM; in the data set with NCI-H460 [1], 14.8 µM.

`CCOP(=O)(OCC)C(NC(=S)NC(=O)[C@]1(C)CCC[C@]2(C)c3ccc(C(C)C)cc3CC[C@@H]12)c1ccccc1F` (stereo partly specified): the half-inhibitory concentration (IC50) with SK-OV-3 turned out to be 10 µM; in the data set on A549, 14 µM; in the data set with HepG2, 11.4 µM; in the data set on NCI-H460 [1], 17.8 µM.

`CCOP(=O)(OCC)C(NC(=S)NC(=O)[C@]1(C)CCC[C@]2(C)c3ccc(C(C)C)cc3CC[C@@H]12)c1ccc(OC)cc1` (stereo partly specified): the half-maximal inhibitory concentration (IC50) in the data set with SK-OV-3 was 21.4 µM; with A549, 15.3 µM; with HepG2 it was 32.1 µM; in the data set on NCI-H460 [1], 25 µM.

As to `CCOP(=O)(OCC)C(NC(=S)NC(=O)[C@]1(C)CCC[C@]2(C)c3ccc(C(C)C)cc3CC[C@@H]12)c1cccc2ccccc12` (stereo partly specified), the IC50 in the data set with SK-OV-3 is 19.1 µM; with A549 it was 28.3 µM; in the data set on HepG2, more than 50 µM; in the data set with NCI-H460 [1], 32.6 µM.
